Here are results for three compounds from US20140249172A1 (3B Pharmaceuticals, Inc., priority 2012, published 2014).

SMILES strings stand for the structures. Values joined by “and” are separate entries in the source; they are usually repeats but may differ in a detail not shown here. Equal entries are not always repeated. Structures can show the parent of a compound that is named as a salt.

Data set [1] can be described thus: Blood levels of free naltrexone and free 6-beta-naltrexol following intranasal administration. The following applies: for Blood Level 6-beta-Naltrexol-free / Naltrexone-free blood level: individual patients 1-8. Format: in vivo, human.
Data set [2] is described as follows: Stability of Naltrexone HCl aqueous solution: potency/purity by USP <621> HPLC.
For data set [3] the following is noted: cited from earlier work.
The conditions of data set [4]: oral 0.002 mg/day with methadone; one patient; cited from earlier work.
For data set [5] the following is noted: 0.5 mg/day oral daily for 4 weeks; 42 IBS patients; cited from earlier work.
The conditions of data set [6]: oral, 0.4 mg or 1.0 mg; 90 patients; cited from earlier work.
For data set [7] the following is noted: in vivo, po; cited from earlier work.
For data set [8] the following is noted: 4.5 mg/day for 12 weeks; cited from earlier work.
For data set [9] the following is noted: cited from earlier work. This is another data set of the same source.

On to `Oc1ccc2c3c1O[C@H]1[C@H](O)CC[C@@]4(O)[C@@H](C2)N(CC2CC2)CC[C@]314` [6-beta-Naltrexol, 6-beta-naltrexol], for which the “Blood Level 6-beta-Naltrexol-free, Avg.” value in data set [1] (average of 8 subjects, 15 min) is on record as 0.138 ng/mL; in data set [1] (average of 8 subjects, 30 min), 0.900 ng/mL; in data set [1] (average of 8 subjects, 60 min), 1.588 ng/mL; in data set [1] (average of 8 subjects, 120 min) it was 2.438 ng/mL. Also, the “Blood Level 6-beta-Naltrexol-free” value in [1] (15 min after intranasal 1 mL of Example 1 composition) was 0 ng/mL (7×) and 1.1 ng/mL; in data set [1] (30 min), 0 ng/mL (3×) and 1 ng/mL (2×) and 1.5 ng/mL and 1.9 ng/mL and 1.8 ng/mL; in data set [1] (60 min) it was 1.1 ng/mL and 1.9 ng/mL and 0 ng/mL (2×) and 1.2 ng/mL and 1.6 ng/mL and 2.9 ng/mL and 4 ng/mL; in data set [1] (120 min), 2.1 ng/mL (2×) and 2.7 ng/mL and 2 ng/mL and 1.8 ng/mL and 1 ng/mL and 3.5 ng/mL and 4.3 ng/mL.

Take `O=C1CC[C@@]2(O)[C@H]3Cc4ccc(O)c5c4[C@@]2(CCN3CC2CC2)[C@H]1O5` [Naltrexone HCl, Naltrexone hydrochloride]: the Potency/Purity in [2] (Stability Test A, 2.00 mg/mL in sterile water, room temperature, ambient light, day 5) was 99.89%; in [2] (Stability Test A, day 14) it was 104.12%; in data set [2] (Stability Test A, day 31), 95.94%; in data set [2] (Stability Test A, day 62), 107.00%; in data set [2] (Stability Test A, day 90), 107.09%; in data set [2] (Stability Test B, 2.00 mg/mL in sterile water, room temperature, ambient light, day 6), 102.04%. For the same compound, the Potency/Purity in data set [2] (Stability Test B, day 15) is given as 102.11%; in data set [2] (Stability Test B, day 33), 101.05%; in [2] (Stability Test B, day 61) it was 98.49%; in [2] (Stability Test B, day 90), 99.24%; in data set [2] (Stability Test B, day 121) it was 98.70%; in [2] (Stability Test B, day 152) it was 98.56%. The Potency/Purity in [2] (Stability Test B, day 180) is 100.44%. Also, in data set [3], the solubility in water entry was “about 100 mg/mL”.

As for `O=C1CC[C@@]2(O)[C@H]3Cc4ccc(O)c5c4[C@@]2(CCN3CC2CC2)[C@H]1O5` [Naltrexone, naltrexone], the pain relief entry in [4] is given as “improved pain relief”. Also, the “patients with improved global assessment” value in data set [5] is on record as 76%. Also, in [1] (both sexes, human, in vivo, 2 mg, average of 8 subjects, 15 min after intranasal administration, read-out: Naltrexone-free blood level, Avg.), the concentration at 15 min was determined as 3.52 ng/mL. In [1] (both sexes, human, in vivo, 2 mg, average of 8 subjects, 30 min, read-out: Naltrexone-free blood level, Avg.), the concentration at 30 min amounted to 3.66 ng/mL. In addition, in [1] (both sexes, human, in vivo, 2 mg, average of 8 subjects, 60 min, read-out: Naltrexone-free blood level, Avg.), the concentration at 60 min amounted to 3.24 ng/mL. In data set [1] (both sexes, human, in vivo, 2 mg, average of 8 subjects, 120 min, read-out: Naltrexone-free blood level, Avg.), the concentration at 120 min amounted to 1.94 ng/mL. Further, the Naltrexone-free blood level was 5.2 ng/mL and 1.4 ng/mL and 4.7 ng/mL and 4.6 ng/mL (2×) and 1.6 ng/mL and 2.1 ng/mL and 4 ng/mL in data set [1] (15 min after intranasal 1 mL of Example 1 composition (2 mg/mL)); 5.1 ng/mL and 1.7 ng/mL and 4.7 ng/mL and 3.8 ng/mL and 2.3 ng/mL and 5.5 ng/mL and 2.8 ng/mL and 3.4 ng/mL in data set [1] (30 min after intranasal 1 mL of Example 1 composition); 4.6 ng/mL and 1.8 ng/mL (2×) and 4.5 ng/mL (2×) and 3.2 ng/mL and 2.6 ng/mL and 2.9 ng/mL in data set [1] (60 min after intranasal 1 mL of Example 1 composition); 2.8 ng/mL and 1.1 ng/mL and 2.9 ng/mL and 2.1 ng/mL (2×) and 1.3 ng/mL and 1.4 ng/mL and 1.8 ng/mL in data set [1] (120 min after intranasal 1 mL of Example 1 composition). The “analgesic effect compared with placebo” value in data set [6] was “significant analgesic effects”. Moreover, the “reduction of fibromyalgia symptoms over placebo” value in data set [7] is recorded as “greater than 30%”. Further, in data set [3] (in the form of a salt), the “solubility in water (in words)” value was “freely soluble”. Moreover, in data set [8], the “CDAI scores, quality of life indicators, remission rates, inflammatory markers in serum” value is recorded as “Statistically significant improvements”. Besides, the oral bioavailability result in data set [9] (oral administration, significant first pass metabolism) was “up to 40%”. Further, the “time to peak plasma concentration” value in data set [9] (single oral dose) is 1 to 2 h.
